The record followed here is patent EP2698385A1, “Detection of synthetic cannabinoids” (priority 2012, dated 2014).

Type in all cases: binding, sheep
One test deals with Antibody to Immunogen I. To be noted: Cross-reactants at 100 ng/ml; Antibody to Immunogen I. A digest of the protocol: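 Sheep anti-Immunogen I IgG coated on plates, then JWH-018 standards (0–40 ng/ml) competed with hapten-HRP conjugate for 1 h at 25°C. TMB read-out at 450 nm, 4-parameter fit. IC50 is the standard concentration giving 50% B/B0; cross-reactivity of related cannabinoids taken from the calibration curves.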

Test [1] concerns Antibody to Immunogen VII. To be noted: Cross-reactants at 100 ng/ml; Antibody to Immunogen VII.
A further test deals with Antibody to Immunogen IV. The following applies: Cross-reactants at 100 ng/ml; Antibody to Immunogen IV.
The subject of test [2] is Antibody to Immunogen VIII. To be noted: Cross-reactants at 100 ng/ml; Antibody to Immunogen VIII.
A further test deals with Antibody to Immunogen II. The test can be described thus: Competitive ELISA (Example 36), antibody RS1833B12, tracer ESC4555/LK959, standard JWH-018. To be noted: Cross-reactants at 100 ng/ml; Antibody to Immunogen II. Here is the method: An aqueous solution of each immunogen was formulated with Freund's Complete Adjuvant (FCA) to form an emulsion consisting of 2mg/ml* immunogen in 50% (v/v) FCA. Three sheep were immunised with this emulsion (1° immunisation), 0.25ml being intramuscularly injected at each of four sites in the flank of each animal. Subsequent immunizations (boosts) contained 1mg/ml* immunogen. All boosts were emulsified in 50% (v/v) Freund's Incomplete Adjuvant (FIA) and were administered in the same manner as the 1° immunisation, at monthly intervals. Blood sampling took place 7 to 14 days after each boost. *The general procedure for immunogen administration is outlined above, however, it was necessary to deviate from this protocol in some cases, due to reduced immunogen concentrations (Immunogens II, IV, VII and VIII) and/or amount available (Immunogen VIII). Any deviations from the protocol described are outlined in Table 1A below and highlighted in bold. Table 1A: Amount and volume of immunogens administered for primary and subsequent boosts
The appropriate antibody coating dilution was determined using standard ELISA checkerboard techniques. The plate was incubated overnight at 4°C, washed 4 times over 10 minutes with Tris buffered saline containing Tween 20 (TBST) and tapped dry. […] 75µl of conjugate (appropriate hapten-HRP) diluted in Tris buffer (pH 7.2) containing EDTA, D-mannitol, sucrose, thimerosal and BSA, was added to each of the wells. The appropriate dilution of conjugate was also determined using standard ELISA checkerboard techniques. The plate was incubated at 25°C for 1 hour. Excess unbound conjugate was removed by washing 6 times over a 10 minute period with TBST. 125µl of tetramethylbenzidine (TMB) substrate solution was added to each well of the plate that was then incubated for 20 minutes in the dark at room temperature. The reaction was terminated by addition of 125µl 0.2M H2SO4 to each well. The absorbance was then measured at 450nm using a microtiter plate reader. The data are inputted to a computer program called 'KC Junior'. It is a 4 parameter fit curve and allow the calculatation of concentrations between the standard runs.
In a similar manner to that described above, the wells of a 96-well microtiter plate were coated with the IgG fraction of the antiserum raised to Immunogens I or II.
The data set our in Tables 3 and 4 are generated using antibodies raised against the indicated Immunogens in a competitive binding assay with the indicated tracers, using the indicated standards: Table 2
Using the calibration curves generated and employing a single level of cross reactants, these were used to determine the cross-reactivity of each immunoassay with these substances. These are the standards used for the IC50 and cross-reactivity data generation • Immunogen I - JWH-018 • Immunogen II - JWH-018 • Immunogen IV - JWH-018 • Immunogen VII - JWH-015 • Immunogen VIII - JWH-018 Table 4: Cross reactivity of the competitive ELISAs for synthetic cannabinoids and their metabolites
Background: An ELISA detects its analyte on a solid surface through an enzyme-linked reagent.

`CCCCCn1cc(C(=O)c2cccc3ccccc23)c2cccc(O)c21` [JWH-018 7-hydroxyindole metabolite]: the “%B/B0” value in the test with Antibody to Immunogen I was determined as 6.72%; in test [1], 68.53%; in the test on Antibody to Immunogen IV, 93.31%; in test [2] it was 94.46%; with Antibody to Immunogen II, 34.79%.
Taken in the same sequence, the figures for `CCCCCCn1cc(C(=O)c2cccc3ccccc23)c2cc(O)ccc21` [JWH 019 5-hydroxyindole metabolite] were 19.81%, 87.58%, 93.84%, 101.57% and 17.34%.
On to `CN1CCCCC1Cn1cc(C(=O)c2cccc3ccccc23)c2ccccc21` (stereo not drawn) [AM-1220], for which the “%B/B0” value in the test on Antibody to Immunogen I amounted to 4.45%; in test [1], 49.71%; with Antibody to Immunogen IV, 86.93%; in test [2] it was 106.65%; in the test on Antibody to Immunogen II, 77.46%.
On to `O=C(c1cccc2ccccc12)c1cn(CCCCCF)c2ccccc12` [AM-2201], for which the “%B/B0” value with Antibody to Immunogen I is 3.72%; in test [1] it was 55.28%; in the test with Antibody to Immunogen IV, 6.20%; in test [2] it was 16.74%; with Antibody to Immunogen II, 11.72%.
As for `CCCCCn1cc(C(=O)c2ccc(C)c3ccccc23)c2ccccc21` [JWH-122], the “%B/B0” value in the test with Antibody to Immunogen I came to 62.98%; in test [1], 89.37%; in the test with Antibody to Immunogen IV, 3.94%; in test [2], 14.43%; in the test with Antibody to Immunogen II, 44.55%.
For `O=C(c1ccccc1I)c1cn(CCCCCF)c2ccccc12` [AM-694], the “%B/B0” value stood at 12.17% with Antibody to Immunogen I; 75.66% in test [1]; 11.30% in the test on Antibody to Immunogen IV; 11.92% in test [2]; 36.18% in the test with Antibody to Immunogen II.
Regarding `CCCCCn1cc(C(=O)c2cccc3ccccc23)c2ccc(OC)cc21` [JWH-018 6-methoxyindole analogue], the “%B/B0” value in the test with Antibody to Immunogen I worked out at 10.55%; in test [1], 72.33%; in the test on Antibody to Immunogen IV, 90.65%; in test [2], 77.22%; in the test on Antibody to Immunogen II it was 20.44%.
Consider `O=C(c1cccc2ccccc12)c1cn(CCCCO)c2ccccc12` [JWH-073 N-(4-hydroxybutyl) metabolite], for which the “%B/B0” value in the test with Antibody to Immunogen I was found to be 3.22%; in test [1], 48.81%; in the test on Antibody to Immunogen IV it was 52.61%; in test [2], 57.99%; with Antibody to Immunogen II, 60.01%.
In the case of `CS(=O)(=O)O.Cc1c(C(=O)c2cccc3ccccc23)c2cccc3c2n1[C@H](CN1CCOCC1)CO3` [(+)WIN 55212-2 (mesylate), (+)WIN 55212-2], the “%B/B0” value is listed as 17.00% in the test with Antibody to Immunogen I; 24.08% in test [1]; 92.76% with Antibody to Immunogen IV; 107.12% in test [2]; 83.87% with Antibody to Immunogen II.
As for `CC(C)(C)Cn1cc(C(=O)c2cccc3ccccc23)c2ccccc21` [JWH-018 N-(2,2-dimethylpropyl) isomer], the “%B/B0” value is 3.89% in the test on Antibody to Immunogen I; 52.46% in test [1]; 80.42% in the test with Antibody to Immunogen IV; 95.09% in test [2]; 60.15% in the test on Antibody to Immunogen II.
Taken in the same sequence, the figures for `CCCCn1cc(C(=O)c2cccc3ccccc23)c2cccc(O)c21` [JWH-073 7-hydroxyindole metabolite] were 5.59%, 61.78%, 96.95%, 94.04% and 46.05%.
On to `CCCCn1cc(C(=O)c2c(C)ccc3ccccc23)c2ccccc21` [JWH 073 2-methylnaphthyl analog], for which the “%B/B0” value turned out to be 21.84% in the test with Antibody to Immunogen I; 76.74% in test [1]; 34.47% in the test with Antibody to Immunogen IV; 78.79% in test [2]; 43.34% with Antibody to Immunogen II.
